Patent publication US20100222394A1, “METHOD FOR PRODUCING PYRAZOL-3-YL-BENZAMIDE DERIVATIVE” (priority 2007, published 2010)

What was measured:
[1] = target: recombinant human liver GK (Homo sapiens, UniProt P35557); assay: biochemical; parameters: Emax: dose or concentration left out as unconfirmed
Source text: The glucokinase activity may be determined not by directly measuring glucose-6-phosphate but by measuring the level of Thio-NADH, which is produced when a reporter enzyme, glucose-6-phosphate dehydrogenase produces phosphogluconolactone from glucose-6-phosphate, and based on the level, the degree of glucokinase activity of the compound tested may be determined.
In this assay, used was a recombinant human liver GK, which was expressed by E. coli as a FLAG fusion protein therein and was purified by […] M2 AFFINITY GEL (Sigma).
69 μl of an assay buffer (25 mM Hepes Buffer/pH=7.2, 2 mM MgCl2, 1 mM ATP, 0.5 mM TNAD, 1 mM dithiothreitol) was put into the plate, and 1 μl of a DMSO solution of the compound or DMSO alone as a control was added thereto. Next, 20 μl of an enzyme mixture (FLAG-GK, 20 U/ml G6PDH) cooled in ice was added to it, and 10 μl of a substrate, 25 mM glucose was added to it, and the reaction was initiated (final glucose concentration=2.5 mM).
The OD level of the DMSO control was set as 100%; and the OD level of the test compound at different concentrations was determined. From the OD level at each concentration, Emax (%) and EC50 (μM) were computed and used as the index of the GK-activating potency of the compound.

[2] = Solid-state properties of the crystal compared to the amorphous form (from thermogravimetric analysis and X-ray powder diffraction); assay type: physicochemical; conditions: compared to amorphous form of the free benzamide of patent document 1
Protocol: (§1) A Perkin Elmer model TG 7 or equivalent instrument is used. Experiments are performed under a flow of nitrogen and using a heating rate 10° C./min to a maximum temperature of 500° C. Approximately 10 mg of sample is added to the platinum pan. Weight/temperature data are collected automatically by the instrument. Compound 9 doesn't show obvious weight loss until 180° C.
Obtain the X-ray diffraction pattern of a finely-powdered, randomly orientated sample, using copper K alpha X-radiation from 4 to 40 theta.
Bruker powder X-ray diffractometer D8ADVANCE (at 2 kW) (bull car ray X id bull car ray X id Co., Ltd.) is used, and a powder X-ray diffraction experiment was done.

[3] = Thermogravimetric analysis; assay type: physicochemical; conditions: flow of nitrogen, heating rate 10° C./min
Protocol: as §1

Chain of recombinant human liver GK (P35557 1-466 isoform P35557-2): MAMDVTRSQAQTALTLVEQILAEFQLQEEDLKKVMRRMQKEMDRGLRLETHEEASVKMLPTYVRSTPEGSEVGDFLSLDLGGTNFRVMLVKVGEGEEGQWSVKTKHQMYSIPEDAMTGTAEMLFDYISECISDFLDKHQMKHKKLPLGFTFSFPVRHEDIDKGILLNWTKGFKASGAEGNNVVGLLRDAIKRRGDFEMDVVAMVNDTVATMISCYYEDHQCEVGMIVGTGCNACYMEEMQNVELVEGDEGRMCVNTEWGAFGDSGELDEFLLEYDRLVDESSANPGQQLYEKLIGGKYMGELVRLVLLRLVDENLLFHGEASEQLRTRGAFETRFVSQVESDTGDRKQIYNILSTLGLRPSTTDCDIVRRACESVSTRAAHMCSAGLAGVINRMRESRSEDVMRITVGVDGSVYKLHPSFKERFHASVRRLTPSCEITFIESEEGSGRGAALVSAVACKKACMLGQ

EC50 [1]: 0.03 µM | Emax [1]: 828% | hygroscopicity [2]: less hygroscopicity | physical stability [2]: stability physically | temperature until which no obvious weight loss is shown [3]: ≥ 180 °C
Compound: CCS(=O)(=O)c1ccc(Oc2cc(O[C@@H](C)CO)cc(C(=O)Nc3ccn(C)n3)c2)cn1.CS(=O)(=O)O [3-(6-ethanesulfonylpyridin-3-yloxy)-5-((1S)-2-hydroxy-1-methyl-ethoxy)-N-(1-methyl-1H-pyrazol-3-yl)benzamide methanesulfonate]
